The values below come from patent publication US20250353828A1, “SUBSTITUTED BIARYL ENDOCHIN-LIKE QUINOLONES WITH ENHANCED ANTIPARASITIC ACTIVITY” (Oregon Health & Science University, priority 2022, published 2025).

Data set [1] has as its target T1, human liver cytochrome bc1 complex (Homo sapiens, UniProt P00156).
T1 construct: human host cytochrome bc1 complex isolated from human liver tissue; from tissue; host or cells: human liver tissue
The note with it: data taken from Nilsen et al., 2013 (a) or Frueh et al., 2017 (b); cited from earlier work.

For data set [2], the system named is P. yoelii blood stage infection in mice. The data set can be described thus: In vivo single-dose cure against murine malaria. The conditions noted are these: lowest single dose that cures all 4 mice; P. yoelii, dose on Day 1; prodrugs dosed on molar equivalency to parent drug. The method, then:
Animals that remained aparasitemic out to […] were scored as cures.
In Vivo Single-Dose Efficacy against Murine Malaria. The effectiveness of selected 3-biarylELQs and prodrugs was assessed vs. the blood stage infection for single dose cures. Mice are infected iv with 3.5×10^4 P. yoelii infected RBCs as described for the 4-day test above. Drug administration occurred on the day after inoculation (Day 1). Test agents were dissolved in PEG-400 and administered ig once. On the 5th day blood films were prepared and % parasitemia was assessed. Animals remaining parasite-free for 30 days after drug administration were considered cured. The initial dosing range was: 0.5, 1, 2.5, 5, 10 mg/kg, including a control. Experiments were performed with 4 mice per group to ensure statistical accuracy. The reported parameter for these studies is the lowest single dose that provides a cure to all 4 animals in the group.

In data set [3] the target is T2, P. falciparum cytochrome bc1 complex (Plasmodium falciparum, UniProt Q02768).
T2 construct: endogenous in cells
T2 sequence (Q02768 1-376): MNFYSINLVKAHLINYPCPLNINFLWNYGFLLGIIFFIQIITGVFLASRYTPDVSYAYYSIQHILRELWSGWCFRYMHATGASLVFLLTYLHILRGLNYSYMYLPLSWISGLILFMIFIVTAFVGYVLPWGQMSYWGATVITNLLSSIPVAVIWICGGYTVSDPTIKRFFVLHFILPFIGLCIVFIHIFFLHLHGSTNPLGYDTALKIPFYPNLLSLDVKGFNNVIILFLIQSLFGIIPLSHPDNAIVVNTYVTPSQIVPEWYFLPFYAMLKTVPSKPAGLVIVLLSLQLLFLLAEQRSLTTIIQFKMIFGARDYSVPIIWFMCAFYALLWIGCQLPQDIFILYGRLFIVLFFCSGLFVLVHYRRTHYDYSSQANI
The conditions noted are these: data taken from Nilsen et al., 2013 (a) or Frueh et al., 2017 (b); cited from earlier work.

For data set [4], the system named is P. yoelii (Kenya Strain) blood stage infection in mice. Nature of the data set: 4-day Peters test against murine malaria. The data set is classed as in vivo. The note with it: P. yoelii in mice, oral gavage in PEG400 on Days 1-4; prodrugs dosed on molar equivalency to parent drug. The method, then:
On Day 5 a drop of blood was taken from the tail and a blood smear was prepared, fixed with methanol, and stained with Giemsa. The operator then examined the stained smear microscopically to determine percent parasitemia. Dosages of 0.0025, 0.005, 0.01, 0.03, 0.1, 0.3, 1.0 and 10 mg/kg/day were used for the experiment. […] In this model animals were inoculated exactly as for the 4-day test on Day 0 however drug was administered only on Day 1 while the operator made smears on Day 5 and again weekly thereafter for animals that remained aparasitemic. Animals that remained aparasitemic out to […] were scored as cures.
In Vivo Efficacy against Murine Malaria. The P. yoelii 4-day test monitors suppression of patent infection in female CF1 mice. The test began with the inoculation (iv) of parasitized erythrocytes (3.5×10^4/P. yoelli) (from a donor animal) on the first day of the experiment (D0). […] Initially the 3-biaryl-ELQs were tested at doses of 0.0025, 0.005, 0.01, 0.03, 0.1, 0.3, 1.0 and 10 mg/kg/day, including a vehicle-only (PEG400) control. After completion of drug treatment, a blood sample was collected (by pricking the tail vein) for determination of parasite burden beginning on the day after the final dose (D5). Percent parasitemia is assessed by direct microscopic analysis of Giemsa-stained blood smears. […] Animals with observable parasitemia following the experiment were euthanized; animals cleared of parasites from the bloodstream were observed daily with assessment of parasitemia performed weekly until day 30, at which point the animal(s) were scored as cured of infection. […] Non-linear regression analysis is used for objective determination of ED50's and ED90's from the accumulated data as well as the Non-Recrudescence Dose (NRD). The 4-day test protocol was reviewed and approved by the local IACUC board at the Portland VA Medical Center. Experiments were performed with 4 mice per group to ensure statistical accuracy.

Data set [5] has as its system P. falciparum Tm90-C2B (atovaquone-resistant clinical isolate). Nature of the data set: In vitro antiplasmodial activity, SYBR Green I assay, Tm90-C2B. The data set is classed as cell-based. The conditions noted are these: Plasmodium falciparum, read-out: P. falciparum IC50 values, nM Tm90-C2B. The method, then:
(§1) Rationale for Synthesis of a 3-Biaryl Version of ELQ-300. […] All of this information is stored in a database with information relating to chemical structure, physical chemical properties, cross resistance patterns, mammalian cell cytotoxicity, enzyme inhibitor profiles, and synthesis details. […] We employed the SyBr Green assay and the plates were incubated for 72 hours before harvesting^18, 19. […] Stock solutions were freshly prepared in DMSO.
(§2) Plasmodium falciparum Culture. Laboratory strains of P. falciparum were cultured in human erythrocytes by standard methods. The parasites were grown in culture medium with fresh human erythrocytes maintained at 2% hematocrit at 37° C. in low-oxygen conditions (5% O2, 5% CO2, […] balance N2). […] Cultures were maintained at less than 10% parasitemia by transfer of infected cells to fresh erythrocytes and culture medium every 3 or 4 days.
(§3) In vitro drug susceptibility assays. SYBR green I assay. In vitro antiplasmodial activity was assessed using a published SYBR Green I fluorescence-based method. The drugs were added to 96-well plates using 2-fold serial dilutions in complete medium. […] Asynchronous P. falciparum parasites were diluted with uninfected erythrocytes and added to the wells to give a final culture volume of 100 μl at 2% hematocrit and 0.2% parasitemia. […] The parasites were then lysed by adding 100 μl of SYBR green I lysis buffer containing 0.2 μl/ml SYBR green I dye (10,000×) in 20 mM Tris (pH 7.5), 5 mM EDTA, 0.008% (wt/vol) saponin, and 0.08% (vol/vol) Triton X-100. The plates were incubated at room temperature for an hour in the dark. […] If the IC50 value fell outside of the initial tested range then the range was adjusted up or down and the assay was repeated.

Data set [6] concerns P. falciparum D6 strain (drug sensitive). Nature of the data set: In vitro antiplasmodial activity, SYBR Green I assay, D6 strain. It is filed as cell-based, Plasmodium falciparum. The note with it: for IC50: Plasmodium falciparum, read-out: P. falciparum IC50 values, nM D6. The method, then:
as §1, §2, §3

Data set [7] has as its system P. falciparum Dd2 strain (multidrug resistant). The data set can be described thus: microbe, parasite or virus in culture. It is filed as cell-based, Plasmodium falciparum. The note with it: Plasmodium falciparum, DD2, 72 h, read-out: P. falciparum IC50 values, nM Dd2. The method, then:
as §1, §2, §3

For data set [8], the system named is P. falciparum D1 clone (ELQ-300 resistant). Nature of the data set: microbe, parasite or virus in culture. It is filed as cell-based. The note with it: Plasmodium falciparum, 72 h, read-out: P. falciparum IC50 values, nM D1.
Data set [9] can be described thus: Murine microsomal metabolic stability. The conditions noted are these: for half-life at 1 μM: pH 7.4, T1/2 (minutes).
Text: Ketanserin served as an internal standard for the metabolic rate of a known drug with known intermediate stability.
Imipramine or Osalmid were used as internal standards, and ketanserin was used as a control drug with intermediate stability.
The target in data set [10] is T1, human liver cytochrome bc1 complex. Nature of the data set: Inhibition of human cytochrome bc1 complex. It is filed as biochemical. The conditions noted are these: complex isolated from human liver tissue. From the text: Human Cytochrome bc1 Assays.
The target of data set [11] is T2, P. falciparum cytochrome bc1 complex. The data set can be described thus: biochemical. The conditions noted are these: cytochrome bc1 activity from P. falciparum mitochondria. From the text:
Isolation of Plasmodium falciparum Mitochondria and Ubiquinol-Cytochrome c Oxidoreductase Assay.

Data set [12] in a line: HepG2 cytotoxicity, TiterGlo ATP luminescence, galactose medium. The data set is classed as cell-based, human. The conditions noted are these: human; HepG2, galactose medium, 48 hours; read-out: EC50 (cytotoxicity). The method, then: (§4) […]. Of course, enhanced potency is desirable only if unaccompanied by enhanced toxicity. […] […]. The incubation period for these experiments was 48 hours.

For the next data set, the system named is HepG2 cells. Described as above. The data set is classed as cell-based, human. The method, then:
as §4

[13] abbreviates: Tm90-C2B strain, 72 h incubation, averages of quadruplicate with (95% confidence intervals).
The mark [14] stands for this setting: D6 strain, 72 h incubation, averages of quadruplicate with (95% confidence intervals).
Setting [15] is: mouse, pooled liver microsomes, murine liver microsomes 0.5 mg/ml, 37° C., NADPH, 45 minutes.

Where two headings read alike, the source gives them in different places.

For the molecule `CCOC(=O)OCOc1c(-c2ccc(Oc3ccc(OC(F)(F)F)cc3)cc2)c(C)nc2cc(OC)c(Cl)cc12` [ELQ-331, reference compound], the IC50 (usually the concentration needed to halve the response being measured) in data set [1] was greater than 10000 nM. Also, the Single dose cure in [2] amounted to 3 mg/kg/day. Further, the IC50 in data set [3] is 5300 nM. Besides, in data set [4], the “4-day Peters Test Results ED90” value is listed as 0.05 mg/kg/day and the “4-day Peters Test Results NRD (non-recrudescence dose)” value is reported as 1.0 mg/kg/day.

Regarding `O=C1C(O)=C([C@H]2CC[C@H](c3ccc(Cl)cc3)CC2)C(=O)c2ccccc21` [Atovaquone, reference compound], the IC50 was greater than 1000 nM in data set [5] (setting [13]); 460 nM in data set [1]; 0.08 nM in data set [6] (setting [14]); 0.4 nM in data set [7]; 0.4 nM in data set [8]. Besides, the Single dose cure in data set [2] came to 10 mg/kg/day. Also, in data set [4], the “4-day Peters Test Results ED50” value was determined as 0.1 mg/kg/day. The “4-day Peters Test Results NRD (non-recrudescence dose)” value in [4] was 10 mg/kg/day.

For `CCOC(=O)OCOc1c(-c2ccc(-c3ccc(OC(F)(F)F)cc3)cc2)c(C)nc2cc(OC)ccc12` [ELQ-695, Ethyl (((7-methoxy-2-methyl-3-(4′-(trifluoromethoxy)-[1,1′-biphenyl]-4-yl)quinolin-4-yl)oxy)methyl) carbonate], the IC50 in data set [5] (setting [13]) turned out to be 10.1 nM; in data set [6] (setting [14]), 20.9 nM; in [7], 22.3 nM; in [8], 8.4 nM. For the same molecule, the half-life (commonly the time needed for the level to fall by half in the phase considered) at 1 μM in [9] (setting [15]) was greater than 66.7 h. Moreover, the “4-day Peters Test Results ED50” value in data set [4] amounted to 0.2 mg/kg/day. Further, the “4-day Peters Test Results ED90” value in [4] is on record as 0.3 mg/kg/day. Besides, the “4-day Peters Test Results NRD (non-recrudescence dose)” value in [4] is reported as 3.7 mg/kg/day.

For the molecule `CCN(CC)CCCC(C)Nc1ccnc2cc(Cl)ccc12` (stereo not shown) [CQ, chloroquine, reference compound], the Single dose cure in [2] is greater than 64 mg/kg/day. For the same molecule, the “4-day Peters Test Results NRD (non-recrudescence dose)” value in data set [4] is greater than 64 mg/kg/day.

As for `COc1ccc2c(=O)c(-c3ccc(-c4ccc(OC(F)(F)F)cc4)cc3)c(C)[nH]c2c1` [ELQ-685, 7-Methoxy-2-methyl-3-(4′-(trifluoromethoxy)-[1,1′-biphenyl]-4-yl)quinolin-4(1H)-one], the IC50 was 5.2 nM in [5] (setting [13]), 5.8 nM in data set [6] (setting [14]), 8.5 nM in data set [7] and 3.5 nM in data set [8]. This molecule also returned a half-life at 1 μM in data set [9] (setting [15]) greater than 66.7 h.

Regarding `COc1cc2[nH]c(C)c(-c3ccc(-c4ccc(OC(F)(F)F)cc4)cc3)c(=O)c2cc1Cl` [ELQ-596, 6-chloro-7-methoxy-2-methyl-3-(4′-(trifluoromethoxy)-[1,1′-biphenyl]-4-yl)quinolin-4(1H)-one], the IC50 in [10] was greater than 10000 nM; in data set [5] (TM90, 72 h) it was 0.2 nM; in data set [11], 0.1 nM; in data set [6] (D6, 72 h), 0.3 nM; in [7], 0.4 nM. For the same molecule, in data set [9] (mouse, pooled liver microsomes, pH 7.4), the CLint scaled – broadly, the capacity of the preparation to metabolise the compound, expressed as a volume cleared per time – at 1 μM stood at 1.15 mL/min/kg. In addition, the half-life at 1 μM in data set [9] (setting [15]) was greater than 66.7 h. For the same molecule, in [9] (murine liver microsomes 0.5 mg/ml, 37° C., NADPH, 45 minutes), the “T1/2 (minutes)” value was 4,260 minutes. Also, the “improvement of IC50 values over ELQ-300” value in [6] (D6 and Dd2 strains as well as C2B) was 8- to 10 fold. Besides, the EC50 (usually the concentration that produces a half-maximal response) at 48 h in data set [12] is greater than 10000 nM. Also, the EC50 with HepG2 cells (medium with galactose instead of glucose) is greater than 10000 nM. The “4-day Peters Test Results ED50” value in data set [4] is given as 0.01 mg/kg/day. Further, the “4-day Peters Test Results ED90” value in [4] amounted to 0.021 mg/kg/day. The “4-day Peters Test Results NRD (non-recrudescence dose)” value in [4] was 0.3 mg/kg/day.

On to `C=C(C)[C@H]1Cc2c(ccc3c2O[C@@H]2COc4cc(OC)c(OC)cc4[C@@H]2C3=O)O1` [rotenone, reference compound], for which the “EC50 (cytotoxicity)” value with HepG2 cells (HepG2, galactose medium, 48 hours) is on record as “quite cytotoxic”.
